# In ChEMBL document CHEMBL1201862, “PubChem BioAssay data set” (2004):
#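 Method: 48-hour compound exposure of cells in 96-well plates, five concentrations, linear interpolation of endpoints. Here, GI50 denotes the concentration required for 50% inhibition of growth.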 The source made the active and inactive calls. Rule as the data show it: active = GI50 up to about 1.1 µM and inactive = higher.
# What was measured:
# Assay in all cases: inhibition of tumour cell growth, NCI panel, 48 h
# HT-29 = test system: HT-29
# LOX IMVI = test system: LOX IMVI
# HCT-15 = test system: HCT-15
# UACC-257 = test system: UACC-257
# HOP-92 = test system: HOP-92
# NCI-H226 = test system: NCI-H226
# SF-295 = test system: SF-295
# SK-MEL-28 = test system: SK-MEL-28
# DU-145 = test system: DU-145
# SK-MEL-2 = test system: SK-MEL-2
# HOP-62 = test system: HOP-62
# SNB-75 = test system: SNB-75
# TK-10 = test system: TK-10
# Malme-3M = test system: Malme-3M
# SW-620 = test system: SW-620
# HCT-116 = test system: HCT-116
# SF-539 = test system: SF-539
# NCI-H522 = test system: NCI-H522
# UO-31 = test system: UO-31
# NCI/ADR-RES = test system: NCI/ADR-RES
SMILES,GI50 (HT-29),GI50 (LOX IMVI),GI50 (HCT-15) [µM],GI50 (UACC-257),GI50 (HOP-92),GI50 (NCI-H226),GI50 (SF-295),GI50 (SK-MEL-28),GI50 (DU-145),GI50 (SK-MEL-2),GI50 (HOP-62),GI50 (SNB-75),GI50 (TK-10),GI50 (Malme-3M),GI50 (SW-620),GI50 (HCT-116),GI50 (SF-539),GI50 (NCI-H522),GI50 (UO-31),GI50 (NCI/ADR-RES)
O=C1NC(c2ccccc2Cl)Nc2ccccc21 (stereo not given),6.67 µM (inactive),12.5 µM (inactive),3.9,> 100 µM (inactive),44.4 µM (inactive),41.8 µM (inactive),13.9 µM (inactive),24.1 µM (inactive),30.8 µM (inactive),6.7 µM (inactive),35.4 µM (inactive),13.8 µM (inactive),> 53.1 µM (inactive),12.3 µM (inactive),3.09 µM (inactive),7.24 µM (inactive),7.08 µM (inactive),12.3 µM (inactive),30.7 µM (inactive),5.61 µM (inactive)
C[C@@]12C[C@@H](c3ccccc3O1)N1CCCSC1=N2,> 100 µM (inactive),> 100 µM (inactive),> 100,> 100 µM (inactive),> 100 µM (inactive),> 100 µM (inactive),> 100 µM (inactive),> 100 µM (inactive),> 100 µM (inactive),> 100 µM (inactive),> 100 µM (inactive),> 100 µM (inactive),> 100 µM (inactive),> 100 µM (inactive),> 100 µM (inactive),> 100 µM (inactive),> 100 µM (inactive),> 100 µM (inactive),> 100 µM (inactive),> 100 µM (inactive)
O=C(/C(=N/Nc1cn[nH]c(=O)c1Cl)c1ccccc1)c1ccccc1,20 µM (inactive),18.8 µM (inactive),12.6,29.2 µM (inactive),24.8 µM (inactive),25.3 µM (inactive),27.6 µM (inactive),45.1 µM (inactive),20.5 µM (inactive),46 µM (inactive),44.8 µM (inactive),8.79 µM (inactive),24.9 µM (inactive),52.7 µM (inactive),31.3 µM (inactive),23.1 µM (inactive),22.6 µM (inactive),17.1 µM (inactive),22.6 µM (inactive),17.5 µM (inactive)
Brc1ccc2[nH]cc(-c3csc(-c4c[nH]c5ccc(Br)cc45)n3)c2c1,1.7 µM (inactive),1.69 µM (inactive),2.02,2.92 µM (inactive),1.69 µM (inactive),2.1 µM (inactive),2.48 µM (inactive),2.11 µM (inactive),2.52 µM (inactive),1.9 µM (inactive),3.25 µM (inactive),2.39 µM (inactive),2.69 µM (inactive),1.56 µM (inactive),1.84 µM (inactive),1.68 µM (inactive),1.56 µM (inactive),1.66 µM (inactive),2.42 µM (inactive),2.21 µM (inactive)
CN1CCN(c2c(Cl)cc(Cl)c3[nH]c4ccccc4c(=O)c23)CC1,3.22 µM (inactive),3.64 µM (inactive),3.39,8.45 µM (inactive),1.35 µM (inactive),9.77 µM (inactive),5.85 µM (inactive),13.1 µM (inactive),5.4 µM (inactive),12.2 µM (inactive),6.15 µM (inactive),9.91 µM (inactive),10.6 µM (inactive),1.96 µM (inactive),3.82 µM (inactive),3.21 µM (inactive),3.94 µM (inactive),2.77 µM (inactive),4.29 µM (inactive),7.35 µM (inactive)
CN(NC1=NCCO1)c1ccc2ccccc2c1,41.1 µM (inactive),37.4 µM (inactive),49.4,65 µM (inactive),13.6 µM (inactive),34.1 µM (inactive),> 100 µM (inactive),70.3 µM (inactive),> 100 µM (inactive),27.8 µM (inactive),80.7 µM (inactive),17.5 µM (inactive),> 100 µM (inactive),36.2 µM (inactive),34.1 µM (inactive),35 µM (inactive),23.6 µM (inactive),29.9 µM (inactive),69.5 µM (inactive),33.2 µM (inactive)
O=C(CCCl)NN=C1NCCCCN1,> 100 µM (inactive),> 100 µM (inactive),> 100,> 100 µM (inactive),> 100 µM (inactive),> 100 µM (inactive),> 100 µM (inactive),> 100 µM (inactive),> 100 µM (inactive),> 100 µM (inactive),> 100 µM (inactive),> 100 µM (inactive),> 100 µM (inactive),> 100 µM (inactive),> 100 µM (inactive),> 100 µM (inactive),> 100 µM (inactive),> 100 µM (inactive),> 100 µM (inactive),> 100 µM (inactive)
COc1ccc(/C=C2\c3cc(OC)c(OC)cc3CCN2C(=O)c2ccccc2)cc1OC,30.7 µM (inactive),41.6 µM (inactive),42.4,86.9 µM (inactive),> 100 µM (inactive),37.9 µM (inactive),61.4 µM (inactive),46.7 µM (inactive),55 µM (inactive),43.3 µM (inactive),37.2 µM (inactive),32 µM (inactive),> 100 µM (inactive),22.5 µM (inactive),34.5 µM (inactive),35.5 µM (inactive),46.7 µM (inactive),20.3 µM (inactive),35.5 µM (inactive),23.7 µM (inactive)
Brc1ccc2[nH]cc(-c3csc(-c4c[nH]c5ccccc45)n3)c2c1,1.8 µM (inactive),2.1 µM (inactive),2.33,5.07 µM (inactive),3 µM (inactive),1.82 µM (inactive),2.42 µM (inactive),5.06 µM (inactive),3.52 µM (inactive),3.17 µM (inactive),4.34 µM (inactive),10.1 µM (inactive),3.61 µM (inactive),3.03 µM (inactive),2.75 µM (inactive),2.47 µM (inactive),4.72 µM (inactive),1.81 µM (inactive),2.93 µM (inactive),2.75 µM (inactive)
CN(C)CCCn1c2ccccc2c2cnccc21,25.1 µM (inactive),24.2 µM (inactive),43.7,18.7 µM (inactive),94.6 µM (inactive),24.1 µM (inactive),46.5 µM (inactive),48.9 µM (inactive),43.9 µM (inactive),45.5 µM (inactive),60.4 µM (inactive),66.1 µM (inactive),26.8 µM (inactive),28.6 µM (inactive),26.4 µM (inactive),19.7 µM (inactive),20.6 µM (inactive),23.8 µM (inactive),17.5 µM (inactive),36.1 µM (inactive)
CC1=C(/C=C/C(C)=C/C=C/C(C)=C/C(=O)OC2CC(n3cc(F)c(=O)[nH]c3=O)OC2CO)C(C)(C)CCC1 (stereo not given),2.71 µM (inactive),2.15 µM (inactive),4.35,7.91 µM (inactive),11.3 µM (inactive),25.4 µM (inactive),0.148 µM (active),7.73 µM (inactive),0.476 µM (active),24.9 µM (inactive),0.158 µM (active),1.07 µM (active),11.5 µM (inactive),12.1 µM (inactive),10.6 µM (inactive),0.748 µM (active),0.0577 µM (active),1.17 µM (inactive),0.431 µM (active),2.05 µM (inactive)
COC(=O)c1ccccc1/C=C1\Cc2c(ccc3c2CCC3)C1=O,> 100 µM (inactive),> 100 µM (inactive),> 100,> 100 µM (inactive),85.9 µM (inactive),> 100 µM (inactive),> 100 µM (inactive),> 100 µM (inactive),> 100 µM (inactive),56 µM (inactive),80.5 µM (inactive),39.1 µM (inactive),> 100 µM (inactive),> 100 µM (inactive),> 100 µM (inactive),> 100 µM (inactive),> 100 µM (inactive),> 100 µM (inactive),> 100 µM (inactive),> 100 µM (inactive)
Cc1cccc2c(N)c3cccc(C(=O)NCCCNCCN)c3nc12,3.13 µM (inactive),7.11 µM (inactive),28.3,16.6 µM (inactive),5.61 µM (inactive),0.311 µM (active),4.45 µM (inactive),15.5 µM (inactive),3.59 µM (inactive),16.3 µM (inactive),3.53 µM (inactive),0.946 µM (active),17.1 µM (inactive),5.57 µM (inactive),8.43 µM (inactive),7.5 µM (inactive),2.17 µM (inactive),< 0.01 µM (active),19 µM (inactive),25.9 µM (inactive)
CN1C(=O)c2c(c3c4ccccc4n(C4OC(CO)C(O)C(O)C4O)c3c3[nH]c4ccccc4c23)C1=O (stereo not given),3.13 µM (inactive),1.2 µM (inactive),4.82,2.49 µM (inactive),1.08 µM (active),1.77 µM (inactive),3.63 µM (inactive),2.14 µM (inactive),2.74 µM (inactive),2.48 µM (inactive),2.93 µM (inactive),3.95 µM (inactive),3.12 µM (inactive),0.194 µM (active),1.71 µM (inactive),0.718 µM (active),1.36 µM (inactive),0.321 µM (active),2.57 µM (inactive),12.5 µM (inactive)
